The values below come from ChEMBL document CHEMBL5233232, “Repurposed drug candidates for antituberculosis therapy” (Eur J Med Chem, 2020).

Test [1] has as its system Mycobacterium tuberculosis. Put plainly: Antitubercular activity against Mycobacterium tuberculosis assessed as bacterial growth inhibition. The format is functional.
The test system of test [2] is Mycobacterium tuberculosis. Briefly: Antitubercular activity against Mycobacterium tuberculosis H37Rv assessed as inhibition of bacterial growth incubated for […] by REMA assay. The format is functional.
Test [3] has as its target T1, Thioredoxin reductase (Mycobacterium tuberculosis) (UniProt P9WHH1).
T1 sequence (whole entry): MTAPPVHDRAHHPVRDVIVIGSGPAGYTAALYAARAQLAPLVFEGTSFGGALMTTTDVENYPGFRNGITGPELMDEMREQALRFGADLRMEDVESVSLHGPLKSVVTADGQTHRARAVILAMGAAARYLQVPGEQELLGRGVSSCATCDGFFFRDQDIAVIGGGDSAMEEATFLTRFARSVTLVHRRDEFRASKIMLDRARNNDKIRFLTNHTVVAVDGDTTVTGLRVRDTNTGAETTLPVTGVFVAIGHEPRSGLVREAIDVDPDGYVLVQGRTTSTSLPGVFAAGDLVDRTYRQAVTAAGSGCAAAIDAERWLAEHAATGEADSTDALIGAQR
Briefly: Inhibition of Mycobacterium tuberculosis Thioredoxin reductase assessed as inhibition.

Test [4] concerns Mycobacterium tuberculosis. Briefly: Antitubercular activity against Mycobacterium tuberculosis assessed as bacterial growth inhibition by CLSI based broth dilution method. The format is functional. Background: In broth dilution the organism is exposed to a series of concentrations in liquid medium.
Test [5] relates to Mycobacterium tuberculosis. Briefly: Antibacterial activity against Mycobacterium tuberculosis H37Rv assessed as fold increase in sensitivity in presence of copper by REMA assay. The format is functional.
Test [6] deals with Mycobacterium tuberculosis. Put plainly: Antitubercular activity against Mycobacterium tuberculosis H37Rv assessed as inhibition of bacterial growth incubated for 24 hrs by checkerboard assay. The format is functional.
Test [7] concerns Mycobacterium tuberculosis. Put plainly: Antitubercular activity against Mycobacterium tuberculosis H37Rv assessed as inhibition of bacterial growth by incubated for 7 days by resazurin dye based broth microdilution method. Particulars: 168 h, time 7 day. The format is functional. For orientation: Alamar Blue is a resazurin reagent that responds to reducing activity.
The target of test [8] is T2, Mycosin-1 (Mycobacterium tuberculosis (strain ATCC 25618 / H37Rv)) (UniProt O05461).
T2 sequence (whole entry): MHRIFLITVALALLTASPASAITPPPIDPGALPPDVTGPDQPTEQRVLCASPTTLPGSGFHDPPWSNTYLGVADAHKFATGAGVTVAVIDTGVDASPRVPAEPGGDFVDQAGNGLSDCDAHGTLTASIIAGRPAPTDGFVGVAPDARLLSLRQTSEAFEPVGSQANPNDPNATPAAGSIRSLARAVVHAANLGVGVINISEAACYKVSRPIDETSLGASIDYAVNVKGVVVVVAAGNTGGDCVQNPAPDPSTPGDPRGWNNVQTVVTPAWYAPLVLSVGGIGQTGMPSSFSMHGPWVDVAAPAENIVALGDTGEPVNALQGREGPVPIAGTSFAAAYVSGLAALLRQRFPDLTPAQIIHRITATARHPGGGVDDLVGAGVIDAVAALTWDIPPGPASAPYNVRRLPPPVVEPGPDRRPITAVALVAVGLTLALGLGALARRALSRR
Briefly: Inhibition of Mycobacterium tuberculosis MycP1 assessed as inhibition rate at 150 uM relative to control.

The test system of test [9] is Mycobacterium tuberculosis. Put plainly: Antitubercular activity against Mycobacterium tuberculosis H37Rv assessed as inhibition of bacterial growth. The format is functional.
The test system of test [10] is Mycobacterium tuberculosis. Put plainly: Antitubercular activity against Mycobacterium tuberculosis H37Rv […] THP-1 cells incubated for 48 hrs by microplate Alamar blue assay. The format is functional.
Test [11] concerns Mycobacterium tuberculosis. Put plainly: Antitubercular activity against Mycobacterium tuberculosis H37Rv […] THP-1 cells in presence of isoniazid. The format is functional, organism-based.
Test [12] relates to Mycobacterium tuberculosis. Put plainly: Antitubercular activity against Mycobacterium tuberculosis H37Rv […] THP-1 cells in presence of rifampin. The format is functional, organism-based.
The test system of test [13] is Mycobacterium tuberculosis. Put plainly: Antitubercular activity against Mycobacterium tuberculosis H37Rv […] THP-1 cells in presence of pyrazinamide. The format is functional, organism-based.
Test [14] relates to Mycobacterium tuberculosis. Put plainly: Antitubercular activity against Mycobacterium tuberculosis H37Rv assessed as inhibition of bacterial growth incubated for 7 days by REMA assay. The format is functional. Conditions: 168 h, time 7 day.
The subject of test [15] is Mycobacterium tuberculosis. Put plainly: Antitubercular activity against Mycobacterium tuberculosis H37Rv assessed as inhibition of bacterial growth by broth microdilution method. The format is functional.
In test [16] the test system is Mycobacterium tuberculosis. Put plainly: Antitubercular activity against Mycobacterium tuberculosis H37Ra assessed as inhibition of bacterial growth incubated for 28 days by microbroth dilution method. The format is functional. Particulars: 672 h, time 28 day.
Test [17] deals with Mycobacterium tuberculosis. Briefly: Antitubercular activity against Mycobacterium tuberculosis H37Rv infected in ip dosed BALB/c mouse assessed as inhibition of bacterial growth. The format is functional.
The subject of test [18] is Mycobacterium tuberculosis. Put plainly: Antitubercular activity against Mycobacterium tuberculosis H37Rv assessed as inhibition of bacterial growth incubated for 5 days by turbidity-based growth inhibition assay. The format is functional. Particulars: 120 h, time 5 day.
In test [19] the test system is Mycobacterium tuberculosis. Briefly: Antitubercular activity against Mycobacterium tuberculosis H37Rv assessed as inhibition of bacterial growth incubated for 2 days by resazurin-based assay. The format is functional. Conditions: 48 h, time 2 day.
The subject of test [20] is Mycobacterium tuberculosis. Put plainly: Antitubercular activity against Mycobacterium tuberculosis H37Rv assessed as inhibition of bacterial growth incubated for 5 days by REMA assay. The format is functional. Conditions: 120 h, time 5 day.

In brackets after ≈: the same amount, converted by molar mass.

`CO[C@H]1/C=C/O[C@@]2(C)Oc3c(C)c(O)c4c(O)c(c(/C=N/N5CCN(C)CC5)c(O)c4c3C2=O)NC(=O)/C(C)=C\C=C\[C@H](C)[C@H](O)[C@@H](C)[C@@H](O)[C@@H](C)[C@H](OC(C)=O)[C@@H]1C` [RIFAMPIN]: in test [1], the MIC is 0.01 µg/mL (≈ 0.0122 µM).

For `CCCCCC/C=C/C=C/CCCCCCCC(=O)O`, the MIC in test [2] was 200 µg/mL (≈ 713 µM); in [3], less than 20 µM.

For the compound `NNC(=O)c1ccncc1` [ISONIAZID], the MIC in test [1] stood at 0.01 µg/mL (≈ 0.0729 µM).

A word on the MIC90: it is an inhibitory concentration at the 90% level, which refers to growth in some studies and to a panel of isolates in others. Turning to `CCCOC(=O)CSC1=C(C(=O)O)N2C(=O)[C@H]([C@@H](C)O)[C@H]2[C@H]1C`, the MIC90 in [4] turned out to be 1 µg/mL (≈ 2.91 µM).

In general, MIC99 refers to the lowest concentration that inhibits either 99% of growth or 99% of the strains tested, depending on the study. As to `CN(NC(=O)CC(=O)NN(C)C(=S)c1ccccc1)C(=S)c1ccccc1` [ELESCLOMOL], the “fold change (FC)” value in test [5] was greater than 65. Further, in test [6], the MIC99 worked out at 4 µg/mL.

`COc1ccc2nc3cc(Cl)ccc3c(Nc3cc(CN4CCCC4)c(O)c(CN4CCCC4)c3)c2n1` [PYRONARIDINE]: the MIC in [7] came out at 5 µg/mL (≈ 9.65 µM).

As for `CCCCC/C=C\C=C\CCCCCCCCC(=O)O`, the MIC in [3] is less than 20 µg/mL.

What is called inhibition is the drop in the measured response relative to a control, in per cent. Regarding `N=C(N)c1ccc(/N=N/Nc2ccc(C(=N)N)cc2)cc1`, the inhibition in test [8] amounted to 58%.

For `CC(C)C[C@H](N)C(=O)NCC(=O)NC[C@H](Cc1ccccc1)B(O)O`, the MIC in test [9] is no more than 5 µg/mL.

Turning to `O=C(Nc1cccc2c(=O)cc(-c3nnn[nH]3)oc12)c1ccc(OCCCCc2ccccc2)cc1` [PRANLUKAST], the MIC90 in test [10] is 5 µg/mL (≈ 10.4 µM).

By MIC50 is commonly meant an inhibitory concentration at the 50% level, which refers to growth in some studies and to a panel of isolates in others. On to `O=c1c2ccccc2[se]n1-c1ccccc1` [EBSELEN], for which the MIC50 in test [9] was 12.5 µg/mL (≈ 45.6 µM).

What is called EC50 is the concentration giving half of the maximal effect. For the compound `CC[C@H](C)C(=O)O[C@H]1C[C@H](O)C=C2C=C[C@H](C)[C@H](CC[C@@H](O)C[C@@H](O)CC(=O)O)[C@H]21` [PRAVASTATIN], the EC50 in test [11], in test [12] and in test [13] was 7.8 µM each time.

As to `C[C@@H](O)[C@H]1C(=O)N2C(C(=O)[O-])=C(SCC(=O)OC3CCCCC3)[C@H](C)[C@H]12.[Na+]`, the MIC90 in test [4] worked out at 1 µg/mL.

For `NC(=O)c1cnccn1` [PYRAZINAMIDE], the MIC in [1] was 0.01 µg/mL (≈ 0.0812 µM).

On to `O[C@@H](c1cc(C(F)(F)F)nc2c(C(F)(F)F)cccc12)[C@H]1CCCCN1` [(S,R)-MEFLOQUINE], for which the MIC in [14] is 5 µg/mL (≈ 13.2 µM).

Take `CSC1=C(C(=O)[O-])N2C(=O)[C@H]([C@@H](C)O)[C@H]2[C@H]1C.[Na+]`: the MIC90 in test [4] was 0.25 µg/mL.

On to `C[C@@H](O)[C@H]1C(=O)N2C(C(=O)[O-])=C(SC3Cn4cnc[n+]4C3)[C@H](C)[C@H]12` (some centres not stated) [BIAPENEM], for which the MIC90 in test [15] was determined as 2.5 µg/mL (≈ 7.13 µM).

`CC(C)(C)c1ccc(-c2nn(-c3ccccc3)cc2Cn2ccnc2)cc1`: the MIC in test [14] worked out at 1.56 µg/mL (≈ 4.38 µM).

Consider `Nc1nc(N)c(-c2ccc(C(=O)Nc3cccc(OC(F)(F)F)c3)cc2)c(OCc2cncs2)n1`, for which the MIC in test [16] was found to be 6.25 µg/mL (≈ 12.4 µM).

`CCCCCC/C=C/C=C\CCCCCCCC(=O)O`: the MIC in test [3] was less than 20 µg/mL.

For the compound `COc1ccc(CCN(C)CCCC(C#N)(c2ccc(OC)c(OC)c2)C(C)C)cc1OC` (configuration not stated) [VERAPAMIL], in test [9], the MIC was found to be 125 µg/mL.

With `C=CCNC(=S)NNC(=S)NCC=C`, the MIC in [1] is 0.5 µg/mL (≈ 2.17 µM).

Take `C[C@@H](O)[C@H]1C(=O)N2C(C(=O)O)=C(S[C@@H]3CN[C@H](CNS(N)(=O)=O)C3)[C@H](C)[C@H]12` (mixture of isomers) [DORIPENEM]: the MIC90 in test [4] worked out at 1 µg/mL.

On to `C=C1C[C@@]23CCC4[C@H](C(=O)O)CCC[C@@]4(C)[C@@H]2CC[C@@H]1C3` (some centres not stated), for which the MIC in [3] turned out to be 0.5 µg/mL.

In the case of `C[C@@H](CNC(=O)CNC(=O)C(N)CC(=O)O)B1OC2CC3CC(C3(C)C)[C@@]2(C)O1.Cl` (some centres not stated), the MIC in test [9] is no more than 5 µg/mL.

Consider `CC/C=C\C/C=C\C/C=C\CCCCCCCC(=O)O` [LINOLENIC ACID], for which the MIC in test [1] was greater than 320 µg/mL; in [2] it was 200 µg/mL (≈ 718 µM).

Consider `C[C@@H](O)[C@H]1C(=O)N2C(C(=O)O)=C(SC3CN(C4=NCCS4)C3)[C@H](C)[C@H]12` [TEBIPENEM], for which the MIC90 in test [15] is 1.25 µg/mL (≈ 3.26 µM).

In the case of `CCC(C)(C)C(=O)O[C@H]1C[C@@H](C)C=C2C=C[C@H](C)[C@H](CC[C@@H]3C[C@@H](O)CC(=O)O3)[C@H]21` [SIMVASTATIN], in test [9], the MIC is greater than 320 µM.

Consider `CCCCC(CC)CNC(=N)NC(=N)NCCCCCCNC(=N)NC(=N)NCC(CC)CCCC.Cl.Cl` (configuration not stated) [ALEXIDINE DIHYDROCHLORIDE], for which the MIC99 in test [17] turned out to be 0.05 µg/mL.

With `CC(C)C[C@H](NC(=O)[C@H](Cc1ccccc1)NC(=O)c1cnccn1)B(O)O` [BORTEZOMIB], the MIC50 in test [18] is 4.3 µM (≈ 1.65 µg/mL).

Take `CC(C)CC(N)C(=O)NCC(=O)NC[C@H](C)B1OC2CC3CC(C3(C)C)[C@@]2(C)O1.Cl` (some centres not stated): the MIC in test [9] was no more than 5 µg/mL.

As for `CC(C)C[C@@H](N)C(=O)NCC(=O)NC[C@H](Cc1ccccc1)B(O)O.Cl`, in test [9], the MIC is no more than 5 µg/mL.

For the compound `COc1nc2ccc(Br)cc2cc1[C@@H](c1ccccc1)[C@@](O)(CCN(C)C)c1cccc2ccccc12` [BEDAQUILINE], the MIC in test [19] amounted to 0.06 µg/mL (≈ 0.108 µM).

`O=C(N[C@@H](Cc1ccccn1)C(=O)N[C@@H](CCc1ccccc1)B(O)O)c1cnccn1`: the MIC50 in [18] stood at 2.5 µM (≈ 1.08 µg/mL).

As to `CC(C)Cc1ccc(-c2nn(-c3ccccc3)cc2Cn2ccnc2)cc1`, the MIC in [14] was found to be 1.56 µg/mL (≈ 4.38 µM).

As for `C[C@@H]1CC[C@H]2[C@@H](C)C(=O)O[C@@H]3O[C@@]4(C)CC[C@@H]1[C@]32OO4` [ARTEMISININ], in test [20], the MIC was 75 µg/mL (≈ 266 µM).

For `C[C@H]1O[C@H](O[C@H]2[C@H](O)[C@@H](O)[C@@H](O[C@H]3[C@H](O)[C@@H](O)C(O)O[C@@H]3CO)O[C@@H]2CO)[C@H](O)[C@@H](O)[C@@H]1N[C@H]1C=C(CO)[C@@H](O)[C@H](O)[C@H]1O` (some centres not stated) [ACARBOSE], in [1], the MIC was determined as 0.05 µg/mL (≈ 0.0774 µM).
